Data: US20240279294A1, “p53 VARIANT WITH IMPROVED LIQUID-LIQUID PHASE SEPARATION ABILITY AND ACTIVITY AND USE THEREOF” (Zhejiang University, priority 2023, published 2024)

B1: LLPSE-p53 (SEQ ID NO.7): p53 in rat with added sequence (including linker) GGASGHHHHHHHHGGAGGGGRRRRRRKK (protein)
chain: MEDSQSDMSIELPLSQETFSCLWKLLPPDDILPTTATGSPNSMEDLFLPQDVAELLEGPEEALQVSAPAAQEPGTEAPAPVAPASATPWPLSSSVPSQKTYQGNYGFHLGFLQSGTAKSVMCTYSISLNKLFCQLAKTCPVQLWVTSTPPPGTRVRAMAIYKKSQHMTEVVRRCPHHERCSDGDGLAPPQHLIRVEGNPYAEYLDDRQTFRHSVVVPYEPPEVGSDYTTIHYKYMCNSSCMGGMNRRPILTIITLEDSSGNLLGRDSFEVRVCACPGRDRRTEEENFRKKEEHCPELPPGSAKRALPTSTSSSPQQKKKPLDGEYFTLKIRGRERFEMFRELNEALELKDARAAEESGDSRAHSSYPKTKKGQSTSRHKKPMIKKVGPDSDGGASGHHHHHHHHGGAGGGGRRRRRRKK

Tests used:
U-2OS cells = assay: cell viability (CCK8), protein delivery combined with TAS-120 or IWR-1, U-2OS; type: cell-based, human; details: LLPSE-p53 (SEQ ID NO.3) protein 0.5-2 μM 24 h, then inhibitor 5-20 μM 24 h; compared with inhibitor plus buffer
Method: The above system was sterilized with a 0.22 μm filter membrane. • 4. The complete medium in the well plate was sucked and discarded, and the above protein delivery system was added, the plate was then placed in an incubator for culture for 24 h. • 5. […] Cell viability was measured by a CCK8 method and with a M5 microplate reader. • 7. Graphpad5 software was used for data processing and one-way ANOVA method was used for statistical analysis.

CDKN1A = CDKN1A luciferase reporter assay in H1299 cells; type: cell-based, human; details: H1299, plasmid co-transfected with CDKN1A reporter gene plasmid, 24 h; compared with WT-p53
Method: (§1) Implementation was made as follows: • 1. Proper number of cells were seeded into a 96-well cell culture plate, plasmids and CDKN1A reporter gene plasmid were co-transformed when cell density reached 60-70%, the cells were then cultured in an incubator for 24 h. • 2. A chemiluminescence test was carried out with a luciferase reporting system test kit produced by Promega and a M5 microplate reader. • 3. Graphpad5 software was used for data processing and analysis.
as §1, with “chemiluminescence assay” for “chemiluminescence test”, “with the” for “with a”, “system” for “system test”
Specific implementation steps can refer to Example 8.

Molecule | killing of U-2OS cells by the inhibitor when combined with LLPSE-p53 protein (U-2OS cells) | transactivation activity on CDKN1A (CDKN1A)
O=C(Nc1cccc2cccnc12)c1ccc(N2C(=O)[C@@H]3[C@H](C2=O)[C@@H]2C=C[C@H]3C2)cc1 [IWR-1] | significantly promotes TAS-120 or IWR-1 to kill U-2OS cells | 
B1 |  | significantly increases the transactivation activity of CDKN1A
